Literature values in patent US20160018671A1, “DRUG DELIVERY FROM CONTACT LENSES WITH A FLUIDIC MODULE” (ONEFOCUS TECHNOLOGY, LLC, priority 2013, published 2016).
Structures can show the parent of a compound that is named as a salt.

Conditions: contact lenses passively impregnated with the drug; for IOP reductions: compared with conventional therapy

brimonidine tartrate
toxicity: no toxicity | IOP reductions: equivalent to conventional therapy

CC(C)(C)NC[C@H](O)COc1nsnc1N1CCOCC1 [timolol maleate]
toxicity: no toxicity | IOP reductions: equivalent to conventional therapy
